Data published in patent US20050260126A1 (priority 2002, published 2005).

What was measured:
[1] = test system: abnormal prion proteins in ScN2a cells with persistent infection of scrapie; test: cells; assay type: cell-based, mouse; conditions: for IC50: Mus musculus, ScN2a, 96 h, read-out: Inhibitory effects on producing abnormal prion protein IC50; for Inhibitory effects on producing abnormal prion proteins (in words): ScN2a cells
ScN2a cells = conditions: for Concentration of inhibiting cell proliferation TC: mouse
[2] = Slc:ICR, mouse, not told, iv

SMILES | IC50 [1] [nM] | Concentration of inhibiting cell proliferation TC (ScN2a cells) [µM] | Permeability into the brain: content in Brain [2] | Permeability into the brain: content in Plasma [2] | Inhibitory effects on producing abnormal prion proteins (in words) [1] | TC and safety concentration margin (in words) (ScN2a cells)
Nc1ccc(-c2ccc3ccccc3n2)cc1 [BF-170, 2-[(4-amino)phenyl]-quinoline] | 100 | 100 | 9.1 % ID/g or ml | 1.4 % ID/g or ml | – | –
Clc1ccc(/C=C/c2nc3ccccc3o2)cc1 [BF-191, 2-[2-(4-chlorophenyl)ethenyl]benzoxazole] | 4 | >10 | 12.0 % ID/g or ml | 2.1 % ID/g or ml | – | –
CN(C)c1ccc(-c2cn3cc(I)ccc3n2)cc1 [BF-130, 2-(4-dimethylamino) phenyl-6-iodoimidazo-[1,2-a]pyridine] | 1 | 100 | 7.3 % ID/g or ml | 2.4 % ID/g or ml | highly inhibitory effects | higher TCs, therefore higher safety concentration margins
Nc1ccc(-c2nc3cc(N)ccc3s2)cc1 [Compound N-231, 2-(4-aminophenyl)-5-aminobenzothiazole] | 10 | 10 | – | – | – | –
Clc1ccc2nc(-c3ccc(Br)s3)cn2c1 [Compound N-472, 2-(5-bromo-2-thienyl)-6-chloroimidazo[1,2-a]pyridine] | 10 | 100 | – | – | – | –
Nc1ccc(C(=O)Nc2ccc(-c3nc4cc(N)ccc4o3)cc2)cc1 [Compound N-220, 4-(5-aminobenzoxazol-2-yl)-N-(4-amino-benzoyl)aniline] | 1 | 10 | – | – | highly inhibitory effects | –
CCN(CC)c1ccc2cc(-c3nc4ccccc4[nH]3)c(=O)oc2c1 [SA-272, 2-(7-diethylamino-coumarin-3-yl)-benzimidazole] | 1000 | 100 | – | – | – | –
Cc1cc2[nH]c(-c3ccc(N)cc3)nc2cc1N [Compound N-242, 2-(4-aminophenyl)-5-amino-6-methyl-benzimidazole] | 100 | 10 | – | – | – | –
Nc1ccc(-c2nc3ccc(N)cc3s2)cc1 [Compound N-224, 2-(4-aminophenyl)-6-aminobenzothiazole] | 1 | >10 | – | – | highly inhibitory effects | –
Nc1ccc(C(=O)Nc2ccc3nc(-c4cc(Cl)c(NC(=O)c5ccc(N)cc5)c(Cl)c4)[nH]c3c2Cl)cc1 [Compound N-233, 4-[6-(N′-(4-amino-benzoyl)amino)-7-chlorobenzimidazol-2-yl]-N-(4-aminobenzoyl)-2,6-dichloroaniline] | 100 | 10 | – | – | – | –
Cc1ccc2nc(-c3ccc(NC(=O)c4cccs4)cc3)sc2c1 [HT-042, 4-(6-methylbenzothiazol-2-yl)-N-(thio-phen-2-carbonyl)aniline] | 10 | >100 | – | – | – | –
Cc1ccc2nc(-c3ccc(NC(=O)c4ccc(Cl)cc4Cl)cc3)sc2c1 [HT-040, 4-(6-methylbenzothiazol-2-yl)-N-(2,4-dichlorobenzoyl)aniline] | 10 | >10 | – | – | – | –
CN(C)c1ccc(/C=C/c2nc3ccc4ccccc4c3s2)cc1 [Compound N-283, 4-[2-(naphth[4,5-c]-thiazol-2-yl)ethenyl]-N,N-dimethylbenzenamine] | 500 | 50 | – | – | – | –
Nc1ccc(-c2nc3ccc(N)cc3o2)cc1 [Compound N-226, 2-(4-aminophenyl)-6-aminobenzoxazole] | 100 | >10 | – | – | – | –
Clc1ccc2nc(-c3ccccc3)c(Br)n2c1 [Compound N-468, 2-phenyl-3-bromo-6-chloroimidazo[1,2-a]pyridine] | 1000 | 100 | – | – | – | –
